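In this assay, cells in 96-well plates receive the compound at five concentrations for 48 hours. Endpoints are linearly interpolated between the surrounding concentrations. GI50 marks 50% less growth. TGI: concentration producing complete growth inhibition.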
Legend:
Experiment in all cases: growth of human tumour cells (NCI), 48 h
HCC-2998 colon = tested on: HCC-2998 colon
MALME-3M melanoma = tested on: MALME-3M melanoma
SN12C renal = tested on: SN12C renal
OVCAR-3 ovarian = tested on: OVCAR-3 ovarian
EKVX NSCLC = tested on: EKVX NSCLC
RXF 393 renal = tested on: RXF 393 renal
HCT-116 colon = tested on: HCT-116 colon
PC-3 prostate = tested on: PC-3 prostate
OVCAR-8 ovarian = tested on: OVCAR-8 ovarian
HCT-15 colon = tested on: HCT-15 colon
HT29 colon = tested on: HT29 colon
HL-60(TB) leukemia = tested on: HL-60(TB) leukemia
SK-OV-3 ovarian = tested on: SK-OV-3 ovarian
ACHN renal = tested on: ACHN renal
KM12 colon = tested on: KM12 colon
NCI-H23 lung = tested on: NCI-H23 lung
TK-10 renal = tested on: TK-10 renal
SK-MEL-5 melanoma = tested on: SK-MEL-5 melanoma
SF-539 CNS = tested on: SF-539 CNS
MDA-MB-468 breast = tested on: MDA-MB-468 breast
SK-MEL-28 melanoma = tested on: SK-MEL-28 melanoma
U251 CNS = tested on: U251 CNS
HS 578T breast = tested on: HS 578T breast
T-47D breast = tested on: T-47D breast
SF-268 CNS = tested on: SF-268 CNS
MCF7 breast = tested on: MCF7 breast
MDA-MB-435 = tested on: MDA-MB-435
HOP-92 NSCLC = tested on: HOP-92 NSCLC
CCRF-CEM leukemia = tested on: CCRF-CEM leukemia
DU-145 prostate = tested on: DU-145 prostate
A549 NSCLC = tested on: A549 NSCLC
786-0 renal = tested on: 786-0 renal
CAKI-1 renal = tested on: CAKI-1 renal
M14 melanoma = tested on: M14 melanoma
UACC-257 melanoma = tested on: UACC-257 melanoma
HOP-62 NSCLC = tested on: HOP-62 NSCLC
RPMI-8226 leukemia = tested on: RPMI-8226 leukemia
UACC-62 melanoma = tested on: UACC-62 melanoma
SNB-75 CNS = tested on: SNB-75 CNS
MOLT-4 leukemia = tested on: MOLT-4 leukemia
SF-295 CNS = tested on: SF-295 CNS
NCI-H522 lung = tested on: NCI-H522 lung
OVCAR-5 ovarian = tested on: OVCAR-5 ovarian
A498 renal = tested on: A498 renal
IGROV1 ovarian = tested on: IGROV1 ovarian
NCI-H226 lung = tested on: NCI-H226 lung
OVCAR-4 ovarian = tested on: OVCAR-4 ovarian
SW-620 colon = tested on: SW-620 colon
SNB-19 CNS = tested on: SNB-19 CNS
COLO 205 colon = tested on: COLO 205 colon
LOX IMVI melanoma = tested on: LOX IMVI melanoma
NCI-H460 lung = tested on: NCI-H460 lung
NCI/ADR-RES ovarian = tested on: NCI/ADR-RES ovarian
BT-549 breast = tested on: BT-549 breast
SK-MEL-2 melanoma = tested on: SK-MEL-2 melanoma
K-562 leukemia = tested on: K-562 leukemia

CO[C@H]1CSS[C@@H]1Cn1nc(-c2ccc(Oc3ccccc3)cc2)c2c(N)ncnc21
GI50 (HCC-2998 colon): 4.31 µM | TGI (HCC-2998 colon): 18 µM | GI50 (MALME-3M melanoma): 9.3 µM | TGI (MALME-3M melanoma): 23.1 µM | GI50 (SN12C renal): 6.52 µM | TGI (SN12C renal): 27.3 µM | GI50 (OVCAR-3 ovarian): 7.82 µM | TGI (OVCAR-3 ovarian): 30.5 µM | GI50 (EKVX NSCLC): 4.87 µM | TGI (EKVX NSCLC): 30.1 µM | GI50 (RXF 393 renal): 6.13 µM | TGI (RXF 393 renal): 25.3 µM | GI50 (HCT-116 colon): 4.19 µM | TGI (HCT-116 colon): 15.9 µM | GI50 (PC-3 prostate): 18 µM | TGI (PC-3 prostate): 75.1 µM | GI50 (OVCAR-8 ovarian): 7.26 µM | TGI (OVCAR-8 ovarian): 53.7 µM | GI50 (HCT-15 colon): 6.09 µM | TGI (HCT-15 colon): 32.6 µM | GI50 (HT29 colon): 4.28 µM | TGI (HT29 colon): 18.1 µM | GI50 (HL-60(TB) leukemia): 4.16 µM | TGI (HL-60(TB) leukemia): 17.6 µM | GI50 (SK-OV-3 ovarian): 2.38 µM | TGI (SK-OV-3 ovarian): 7.36 µM | GI50 (ACHN renal): 4.5 µM | TGI (ACHN renal): 37.3 µM | GI50 (KM12 colon): 5.51 µM | TGI (KM12 colon): 28 µM | GI50 (NCI-H23 lung): 8.51 µM | TGI (NCI-H23 lung): 42.1 µM | GI50 (TK-10 renal): 8.05 µM | TGI (TK-10 renal): 25.7 µM | GI50 (SK-MEL-5 melanoma): 3.21 µM | TGI (SK-MEL-5 melanoma): 12.2 µM | GI50 (SF-539 CNS): 14.4 µM | TGI (SF-539 CNS): 49.2 µM | GI50 (MDA-MB-468 breast): 3.06 µM | TGI (MDA-MB-468 breast): 12.9 µM | GI50 (SK-MEL-28 melanoma): 2.75 µM | TGI (SK-MEL-28 melanoma): 8.16 µM | GI50 (U251 CNS): 6.89 µM | TGI (U251 CNS): 55.2 µM | GI50 (HS 578T breast): 14.2 µM | TGI (HS 578T breast): 68.3 µM | GI50 (T-47D breast): 2.81 µM | TGI (T-47D breast): 20.8 µM | GI50 (SF-268 CNS): 4.22 µM | TGI (SF-268 CNS): > 100 µM | GI50 (MCF7 breast): 3.84 µM | TGI (MCF7 breast): 20.6 µM | GI50 (MDA-MB-435): 2 µM | TGI (MDA-MB-435): 4.28 µM | GI50 (HOP-92 NSCLC): 5.03 µM | TGI (HOP-92 NSCLC): 29.3 µM | GI50 (CCRF-CEM leukemia): 4.49 µM | TGI (CCRF-CEM leukemia): 22.3 µM | GI50 (DU-145 prostate): 13.7 µM | TGI (DU-145 prostate): > 100 µM | GI50 (A549 NSCLC): 4.37 µM | TGI (A549 NSCLC): > 100 µM | GI50 (786-0 renal): 17.4 µM | TGI (786-0 renal): 58 µM | GI50 (CAKI-1 renal): 8.17 µM | TGI (CAKI-1 renal): 74.7 µM | GI50 (M14 melanoma): 1.86 µM | TGI (M14 melanoma): 3.78 µM | GI50 (UACC-257 melanoma): 2.98 µM | TGI (UACC-257 melanoma): 12 µM | GI50 (HOP-62 NSCLC): 3.25 µM | TGI (HOP-62 NSCLC): 26.9 µM | GI50 (RPMI-8226 leukemia): 13.5 µM | TGI (RPMI-8226 leukemia): 51.4 µM | GI50 (UACC-62 melanoma): 2.82 µM | TGI (UACC-62 melanoma): 12.7 µM | GI50 (SNB-75 CNS): 18.8 µM | TGI (SNB-75 CNS): 75.3 µM | GI50 (MOLT-4 leukemia): 1.84 µM | TGI (MOLT-4 leukemia): 4.93 µM | GI50 (SF-295 CNS): 20.6 µM | TGI (SF-295 CNS): 63.4 µM | GI50 (NCI-H522 lung): 11 µM | TGI (NCI-H522 lung): 27.2 µM | GI50 (OVCAR-5 ovarian): 11.4 µM | TGI (OVCAR-5 ovarian): 41.3 µM | GI50 (A498 renal): 17.7 µM | TGI (A498 renal): 63.9 µM | GI50 (IGROV1 ovarian): 8.69 µM | TGI (IGROV1 ovarian): 35.3 µM | GI50 (NCI-H226 lung): 9.1 µM | TGI (NCI-H226 lung): 50.3 µM | GI50 (OVCAR-4 ovarian): 18.4 µM | TGI (OVCAR-4 ovarian): > 100 µM | GI50 (SW-620 colon): 14.6 µM | TGI (SW-620 colon): > 100 µM | GI50 (SNB-19 CNS): 5.96 µM | TGI (SNB-19 CNS): > 100 µM | GI50 (COLO 205 colon): 11.3 µM | TGI (COLO 205 colon): 24.7 µM | GI50 (LOX IMVI melanoma): 8.01 µM | TGI (LOX IMVI melanoma): 20.7 µM | GI50 (NCI-H460 lung): 2.69 µM | TGI (NCI-H460 lung): 7.89 µM | GI50 (NCI/ADR-RES ovarian): 12.8 µM | TGI (NCI/ADR-RES ovarian): 64.6 µM | GI50 (BT-549 breast): 18.4 µM | TGI (BT-549 breast): 34.6 µM | GI50 (SK-MEL-2 melanoma): 3.99 µM | TGI (SK-MEL-2 melanoma): 15 µM | GI50 (K-562 leukemia): 2.83 µM | TGI (K-562 leukemia): 14.4 µM
